Patent US20240417395A1, “DUAL ANTAGONIST AND USE THEREOF” (NICOYA THERAPEUTICS (SHANGHAI) CO., LTD, priority 2021, published 2024)
Values after ≈ are worked out from the molar mass of the structure shown. Where two headings read alike, the source gives them in different places.

Key:
[1] = Experiment on water solubility (HPLC-UV); assay type: physicochemical
Description: The detection was carried out in accordance with the high performance liquid chromatography (General Principles 0512 of Chinese Pharmacopoeia Volume IV (2020)):
Chromatographic conditions for the HPLC-UV method: mobile phase: 0.02 M KH2PO4 aqueous solution-acetonitrile (90:10), gradient elution; chromatographic column: C18; detection wavelength: 210 nm. The water solubility was calculated based on the peak area by the external standard method.

ETa = ETa (Homo sapiens (Human), UniProt P25101); assay: Calcium flux assay on ETa cell line; assay type: cell-based; conditions: ETa/HEK293, calcium flux, endothelin-1 agonist
Description: Test materials: a) cell line: ETa/HEK293; b) vehicles: DMEM, Invitrogen (Cat #11960); Geneticin, Invitrogen (Cat #10131); c) reagent: Fluo-4 Direct, (Invitrogen, Cat #F10471); d) instruments: 384 well Poly-D-Lysine protein coating plate, Greiner #781946; Vi-cell XR Cell Viability Analyzer, Beckman Coulter; Incubator, Thermo.
For the employed agonist endothelin factor (endothelin-1, ET-1) master plate: the agonist was diluted from 50 μM to 15 μM with the test buffer solution.
For antagonist (BQ123, Am J Physiol. 1994 April; 266 (4 Pt 2): H1327-31.) plates and the compound plates: the antagonist and the tested compounds were diluted with DMSO at a gradient ratio of 1:4 to obtain 10 concentration points. Afterwards, 900 nL of each compound solution was transferred to the master plate and 30 μL of the test buffer solution was added. • a) The cell line was removed from the incubator, and 20 μL of 2X Fluo-4 Direct™ buffer solution was added gently by a pipette to a 384-well cell culture plate. • b) The cell plate was incubated at 37° C. for 50 min in the environment of 5% CO2, and then incubated at room temperature for 10 min. • c) The cell plate was removed from the incubator and placed in FLIPR. The compound plates and the tip box were placed in FLIPR. • d) Regarding the EC80 plate: • 1) Operations were conducted on […]. • 2) 10 μL of compound solution was transferred from the EC80 master plate to the cell plate. • 3) Fluorescence signals were read. • 4) The read signals were counted, and the EC80 value of each cell line was calculated using FLIPR. • 5) For the concentration of the compound plate, a solution having a concentration 6 times that of the reference agonist EC80 was formulated. • e) Regarding the compound plate: • 1) Operations were conducted on […]. • 2) 10 μL of compound was transferred to the cell plate. • 3) Fluorescence signals were read. • 4) 10 μL of solution having a concentration 6 times that of the reference agonist EC80 was transferred to the cell plate. • 5) Fluorescence signals were read. • f) Data analysis by Prism

CYP3A4 = CYP3A4 (Homo sapiens (Human), UniProt P08684); assay: Inhibition of cytochrome P450 isozyme CYP3A4; assay type: in vitro ADME; conditions: for IC50: recombinant enzyme
Description: (§1) A total of six specific probe substrates of six isozymes of CYPs, i.e., α-Naphthoflavone (CYP1A2), Sulphaphenazole (CYP2C9), Ticlopidine (CYP2C19), Quinidine (CYP2D6), Ketoconazole (CYP3A4), and Montelukast (CYP2C8) were co-incubated with recombinant hepatic drug enzymes CYP1A2, CYP2C9, CYP2C19, CYP2D6, CYP3A4, and CYP2C8 and test compounds, respectively. Nicotinamide adenine dinucleotide phosphate (NADP+), D-glucose-6-phosphate (G6P) and glucose-6-phosphate dehydrogenase (G6DHP) were added to start the reaction. At the end of the reaction, the corresponding half maximal inhibitory concentrations (IC50) were calculated by the fluorescence detection method (Ex490 nm/Em520 nm).

[2] = Pharmacokinetic test in rats; assay type: in vivo; conditions: SD rats; for Bioavailability: PO 10 mg/kg vs IV 1 mg/kg; for in vivo exposure after oral administration (in words) / oral bioavailability versus reference compound (in words): oral gavage
Description: Experimental animal: SD rats, 6-8 weeks. Six animals were used for each example compound.
Drug solution formulation: all of the Experimental Example compounds were formulated into 1 mg/mL solution. The solution system was 5% DMSO+20% Solutol HS15+75%(20% HP—β-CD aqueous solution).
Grouping for administration: the first group was administered by oral gavage (PO, three SD rats, 10 mg/kg, fasted overnight before administration, and fed after 4 hours following the administration); and the second group was administered by intravenous injection in dorsum of foot (IV, three SD rats, 1 mg/kg, fed freely).
Blood sampling time and treatment method: Blood was collected via the jugular vein at the following 7 to 8 points in time: 0.083 (only in the intravenous injection group), 0.25, 0.5, 1, 2, 4, 8, and 24 hours. The blood samples were centrifuged (2000 g, 4° C., 5 min) to obtain plasma. The samples were stored at −70° C. before analysis.
Analytical instruments and conditions: LC-MS/MS-33 (Triple Quad 6500+); MS: positive, ESI; mobile phases: Mobile phase A: H2O-0.025% FA-1 mM NH4OAc, Mobile phase B: MeOH-0.025% FA-1 mM NH4OAc; flow rate: 0.60 mL/min; chromatographic column: ACQUITY UPLC-BEH C18 (2.1×50 mm, 1.7 μm); column temperature: 60° C.

CYP2D6 = CYP2D6 (Homo sapiens (Human), UniProt P10635); assay: Inhibition of cytochrome P450 isozyme CYP2D6; assay type: in vitro ADME; conditions: for IC50: recombinant enzyme
Description: as §1

[3] = read-out: IC50 activity against ETa (class)
[4] = fluorescence detection, read-out: IC50 CYP3A4
[5] = fluorescence detection, read-out: IC50 CYP2D6

CYP2D6, sequence (P10635 whole entry): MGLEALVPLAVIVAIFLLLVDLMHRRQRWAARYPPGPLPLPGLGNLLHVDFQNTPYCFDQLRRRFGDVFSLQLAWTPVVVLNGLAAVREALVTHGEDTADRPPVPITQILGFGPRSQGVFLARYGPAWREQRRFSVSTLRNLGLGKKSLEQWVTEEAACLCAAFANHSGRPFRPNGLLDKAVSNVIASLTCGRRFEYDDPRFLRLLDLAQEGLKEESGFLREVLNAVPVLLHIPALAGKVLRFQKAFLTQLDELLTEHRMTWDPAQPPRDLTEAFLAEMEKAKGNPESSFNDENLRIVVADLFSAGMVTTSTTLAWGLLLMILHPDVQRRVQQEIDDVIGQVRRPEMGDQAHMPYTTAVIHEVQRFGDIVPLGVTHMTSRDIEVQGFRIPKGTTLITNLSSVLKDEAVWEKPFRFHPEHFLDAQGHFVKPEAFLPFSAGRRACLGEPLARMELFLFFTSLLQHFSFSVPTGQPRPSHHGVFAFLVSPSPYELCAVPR
ETa, sequence (P25101 21-427): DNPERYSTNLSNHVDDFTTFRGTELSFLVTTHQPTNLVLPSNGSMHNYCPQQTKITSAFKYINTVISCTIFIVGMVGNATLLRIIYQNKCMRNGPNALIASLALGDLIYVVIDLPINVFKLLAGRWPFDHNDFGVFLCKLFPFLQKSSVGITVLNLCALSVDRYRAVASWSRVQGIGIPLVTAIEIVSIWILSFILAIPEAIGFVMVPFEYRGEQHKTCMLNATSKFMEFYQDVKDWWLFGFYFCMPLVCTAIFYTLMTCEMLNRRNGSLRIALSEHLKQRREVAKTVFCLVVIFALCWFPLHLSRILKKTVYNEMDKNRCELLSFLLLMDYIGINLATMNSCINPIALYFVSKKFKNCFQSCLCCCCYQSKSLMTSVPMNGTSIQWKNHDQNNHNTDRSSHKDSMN
CYP3A4, sequence (P08684 whole entry): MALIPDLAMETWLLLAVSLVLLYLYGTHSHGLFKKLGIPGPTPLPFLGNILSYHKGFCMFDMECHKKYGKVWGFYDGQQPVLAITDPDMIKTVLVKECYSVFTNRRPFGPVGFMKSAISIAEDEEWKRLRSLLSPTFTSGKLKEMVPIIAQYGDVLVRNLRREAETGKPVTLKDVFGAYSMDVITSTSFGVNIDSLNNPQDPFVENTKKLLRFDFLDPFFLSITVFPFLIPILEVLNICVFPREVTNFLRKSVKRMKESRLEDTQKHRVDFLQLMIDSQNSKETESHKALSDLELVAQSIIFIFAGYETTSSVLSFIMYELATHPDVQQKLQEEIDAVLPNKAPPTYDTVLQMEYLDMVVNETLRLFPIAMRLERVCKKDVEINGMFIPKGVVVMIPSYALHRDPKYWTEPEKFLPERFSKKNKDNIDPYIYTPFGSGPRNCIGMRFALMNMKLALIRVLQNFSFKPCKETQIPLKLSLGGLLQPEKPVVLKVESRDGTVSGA

SMILES | Solubility FaSSGF (pH1.6) ([1]; FaSSGF (pH1.6)) | Solubility FaSSIF (pH6.5) ([1]; FaSSIF (pH6.5)) | Solubility FeSSIF (pH5.0) ([1]; FeSSIF (pH5.0)) | Solubility pH7.4 ([1]; pH7.4) | IC50 (ETa; [3]) | IC50 (ETa; read-out: IC50 against ETa) | risk of inhibiting CYP3A4 activity (conclusion in words) (CYP3A4; conclusion to Table 4) | IC50 (CYP3A4; [4]) | AUClast ([2]; PO 10 mg/kg) | Cmax ([2]; PO 10 mg/kg) | T1/2 ([2]; PO 10 mg/kg) | Tmax ([2]; PO 10 mg/kg) | Bioavailability [2] | in vivo exposure after oral administration (in words) [2] | oral bioavailability versus reference compound (in words) [2] | risk of inhibiting CYP2D6 activity (conclusion in words) (CYP2D6; conclusion to Table 4) | IC50 (CYP2D6; [5]) | further results
CCCCC1=N[C@@]2(CC3C[C@H]3C2)C(=O)N1Cc1ccc(-c2ccccc2S(=O)(=O)Nc2noc(C)c2Cl)c(COCC)c1 (stereo partly drawn) [Example 7] | 0.24 mg/mL | 0.87 mg/mL | 0.08 mg/mL | 0.84 mg/mL | 0.01 to 0.1 µM | 0.0243 µM | no risk of inhibiting | > 10 µM | 23530 ng·h/mL | 3080 ng/mL | 5.28 h | 3.33 h | 43.4% | high in vivo exposure | higher oral bioavailability | no risk of inhibiting | > 10 µM | 
CCCCC1=NC2(CCCC2)C(=O)N1Cc1ccc(-c2ccccc2S(=O)(=O)Nc2noc(C)c2C)c(COCC)c1 [Sparsentan, reference compound] |  |  |  |  |  | 0.0808 µM | had an inhibitory effect | 1 to 10 µM |  |  |  |  |  |  |  | no risk of inhibiting | > 10 µM | solubility ([1]; aqueous medium at pH 7.4 (buffer not named), pH 7.4, aqueous buffer, pH7.4, read-out: Solubility pH7.4): 210 µg/mL (≈ 354 µM); solubility ([1]; pH 1.6, fassgf or other biorelevant, FaSSGF (pH1.6), read-out: Solubility FaSSGF (pH1.6)): 130 µg/mL (≈ 219 µM); solubility ([1]; pH 5, FeSSIF (pH5.0), read-out: Solubility FeSSIF (pH5.0)): 20 µg/mL (≈ 33.7 µM); solubility ([1]; pH 6.5, FaSSIF (pH6.5), read-out: Solubility FaSSIF (pH6.5)): 80 µg/mL (≈ 135 µM); AUC(0-t) ([2]; rat, plasma, PO 10 mg/kg): 18600 ng·h/mL; half-life ([2]; rat, plasma, PO 10 mg/kg): 15.4 h; Bioavailability ([2]; rat, plasma, read-out: Bioavailability): 20.6%; Cmax ([2]; rat, plasma, PO 10 mg/kg, read-out: Cmax): 1800 ng/mL; Tmax ([2]; rat, plasma, PO 10 mg/kg, read-out: Tmax): 1.42 h
CCCCC1=N[C@@]2(CC3C[C@H]3C2)C(=O)N1Cc1ccc(-c2ccccc2S(=O)(=O)Nc2noc(C)c2C)c(COCC)c1 (stereo partly drawn) [Example 3] | >1 mg/mL | 0.19 mg/mL | 0.06 mg/mL | 0.82 mg/mL | 0.01 to 0.1 µM | 0.0105 µM |  |  | 24407 ng·h/mL | 2993 ng/mL | 7.00 h | 2.17 h | 69.3% | high in vivo exposure | higher oral bioavailability |  |  | risk of inhibiting CYP3A4 activity (conclusion in words) (CYP3A4): had an inhibitory effect; IC50 (CYP3A4): 1 to 10 µM; risk of inhibiting CYP2D6 activity (conclusion in words) (CYP2D6): no risk of inhibiting; IC50 (CYP2D6): > 10 µM
